Test results as given in US20230147993A1, “THIOPHENE COMPOUNDS WITH CYCLIC AMIDES, AND USES THEREOF” (Capulus Therapeutics, LLC, priority 2019, published 2023).
Read-outs that look alike come from different tables or passages of the source.

Experiments:
[1] = test system: SREBP; test: Reporter Screening Assay (SRE-luciferase reporter, HepG2); type: cell-based; settings: SREBPv1 Reporter cell line HepG2, 24 hours, 0.01 uM to 10 uM, read-out: I: Reporter Screening Assay (Ave EC50 (nM))
Experimental: Reporter Screening Assay: This assay was used to evaluate the effect on transcriptional activity SREBP of selected compounds using an SRE-luciferase reporter construct. On day 1, 10,000 cells were seeded in a 96 well (white) plate as per the plate map in Growth media without antibiotics. Cells were incubated at 37° C. for 8 hours. After 8 hours, cells were washed with DPBS for complete removal of FBS. DPBS was completely removed and Growth media was replaced with phenol free treatment medium (90 μl) with different FBS concentrations. The cells were then incubated at 37° C. for 24 hours with varying doses (0.01 uM to 10 uM) of compounds. Then a Luciferase assay was performed.
Reagents for performing Luciferase assay were stored at −20° C. To a tube of lyophilized assay substrate was added 1 mL Substrate Solvent and mixed well. The Substrate tube after reconstitution was covered with aluminum foil so as to keep it protected from light. The assay buffer was thawed to room temperature. To 20 mL Assay Buffer was added 200 µL of reconstituted 100× Substrate and mixed well. The reconstituted substrate as well as the assay solution (buffer + substrate) was protected from light throughout the procedure by keeping it covered with aluminum foil. Using a multi-channel pipette, 100 μL Assay Solution (buffer + substrate) was added directly to each sample well in Plate 1, which was incubated for 30 min (plate was covered with aluminum foil). After 30 min incubation, the plate was read for total luminescence. Each well was read for 2 seconds in a plate luminometer. (Microplate reader Envision Microplate reader from Perkin Elmer). Precaution was taken to incubate plate exactly for 30 min prior to reading on the plate reader.
Reporter Assay Materials: SREBPv1 Reporter cell line: HepG2-#32251. Growth Medium: MEM (Corning 10-010), 10% FBS, 1% GlutaMax (Invitrogen Catalog #35050061), […] (Invitrogen Catalog #A1113803) and 1% Penicillin-Streptomycin (Pen-Strep). Treatment Media: Phenol-free MEM (Invitrogen Catalog #51200-038) and 1% GlutaMax (Invitrogen Catalog #35050061). Luciferase Assay: LightSwitch Luciferase Assay Kit (Catalog #32032). LDH assay: Pierce LDH Cytotoxicity Assay Kit (Catalog #SD249616).

[2] = test system: ACACA; test: Gene expression in HepG2 cells (qPCR), ACACA; type: cell-based; settings: for 48 hours, normalized to β-Actin, relative to mock or vehicle treated cells (ΔΔCT)
Experimental: Gene Expression: The effect of selected compounds on the gene expression of HepG2 cells was evaluated. HepG2 cells (P2) were seeded in 24 well plate (80,000 cells/well) for RNA extraction and in a 96 well plate (10,000 cells/well) for Cell Titer Glow (CTG). The media used was DMEM and contained 10% FBS. Each compound was evaluated at […] for 48 hours. Two biological replicates per experimental group were evaluated for RNA. For gene analysis, RNA was harvested with RNEasy kit and 20-100 ng used to synthesize cDNA with random primers. Quantitative PCR was performed on 1 pg to 100 ng cDNA for the following genes: ACACA, ACLY, FASN, LSS, PNPLA3. Gene expression levels were normalized with housekeeping gene, β-Actin, and relative expression levels determined using ΔΔCT method comparing treated to mock or vehicle treated cells as a baseline. “Total” gene expression refers to the average of the values of the 5 genes listed above.

[3] = Stability in human liver microsomes; type: in vitro ADME; settings: 60 min at 37° C., NADPH
Experimental: (§1) Half-life Human Microsomes: Compounds were evaluated for stability in human liver microsomes. A 10 mM stock solution of the compound being evaluated was prepared in DMSO and diluted with water:acetonitrile (1:1) to a concentration of 1 mM. A working concentration of 100 μM was prepared by further dilution with water:acetonitrile (1:1). To make the preincubation mixture, 2.5 μL of the diluted compound was combined with 75 μL of human liver microsomes at 3.33 mg/mL, and 85 μL of 100 mM potassium phosphate buffer, and this mixture was pre-incubated for 10 min at 37° C. To make the 60 minute mixture without cofactor, 32.5 μL of the preincubation mixture was combined with 17.5 μL of 100 mM potassium phosphate buffer and incubated for 60 min at 37° C. To make the 0 min sample with cofactor (NADPH), 16.25 μL of the preincubation mixture was combined with 200 μL of acetonitrile containing internal standard and 8.75 μL of cofactor (NADPH). To make the incubation mixture, 62 μL of cofactor (2.85 mM) was combined with the remaining incubation mixture, and incubated for 60 min at 37° C. To prepare the sample mixture to be evaluated, 25 μL incubation mixture was combined with 200 μL of acetonitrile containing internal standard and vortexed for 5 min at 1200 rpm, then centrifuged for 10 min at 4000 rpm. The supernatant was diluted 2 fold with water and injected on LC-MS/MS. The sample mixture was evaluated by LC-MS/MS using 10 mM ammonium acetate with 0.1% FA as the aqueous mobile phase, and methanol as the organic mobile phase.

[4] = Stability in mouse liver microsomes; type: in vitro ADME
Experimental: as §1
Half-life Mouse Microsomes: Compounds were evaluated in mouse liver microsomes following a similar procedure as described above for human liver microsomes. A similar procedure could be used to evaluate compounds in rat liver microsomes.

Row | SMILES | EC50 ([1]; Homo sapiens) | A: ACACA, effect of compounds on gene expression of HepG2 cells [2] | percent remaining after 60 min in human liver microsomes [3] | percent remaining after 60 min in mouse liver microsomes [4] | EC50 [1]
1 | O=C(c1ccc(-c2cc(-c3ccnc4c3OCC(CO)O4)cs2)c(Cl)c1)N1CCC(O)CC1 (racemic) [Compound I-1629181, (3-chloro-4-(4-(3-(hydroxymethyl)-2,3-dihydro-[1,4]dioxino[2,3-b]pyridin-8-yl)thiophen-2-yl)phenyl)(4-hydroxypiperidin-1-yl)methanone] | < 249 nM |  |  |  | 
2 | O=C(c1ccc(-c2cc(-c3ccnc(C4CCOCC4)c3)cs2)c(Cl)c1)N1CCC(O)CC1 [Compound I-1628752, (3-chloro-4-(4-(2-(tetrahydro-2H-pyran-4-yl)pyridin-4-yl)thiophen-2-yl)phenyl)(4-hydroxypiperidin-1-yl)methanone] | > 500 nM | + (>0.751 = +) | + (0-30 = +) | +++ (≥60.1 = +++) | 
3 | O=C(c1ccc(-c2cc(-c3ccnc(C4CCOC4)c3)cs2)c(Cl)c1)N1CCC(O)CC1 (centres unmarked) [Compound I-1628763, (3-chloro-4-(4-(2-(tetrahydrofuran-3-yl)pyridin-4-yl)thiophen-2-yl)phenyl)(4-hydroxypiperidin-1-yl)methanone] | < 249 nM | ++ (0.31-0.7509 = ++) | + (0-30 = +) | +++ (≥60.1 = +++) | 
4 | O=C(c1ccc(-c2cc(-c3ccnc(C4CCCO4)c3)cs2)c(Cl)c1)N1CCC(O)CC1 (centres unmarked) [Compound I-1628777, (3-chloro-4-(4-(2-(tetrahydrofuran-2-yl)pyridin-4-yl)thiophen-2-yl)phenyl)(4-hydroxypiperidin-1-yl)methanone] | 250 to 500 nM | ++ (0.31-0.7509 = ++) | + (0-30 = +) | +++ (≥60.1 = +++) | 
5 | O=C(c1ccc(-c2cc(-c3ccnc(C4(CO)CC4)c3)cs2)c(Cl)c1)N1CCC(O)CC1 [Compound I-1628961, (3-chloro-4-(4-(2-(1-(hydroxymethyl)cyclopropyl)pyridin-4-yl)thiophen-2-yl)phenyl)(4-hydroxypiperidin-1-yl)methanone] | < 249 nM | ++ (0.31-0.7509 = ++) | +++ (≥60.1 = +++) | +++ (≥60.1 = +++) | 
6 | O=C(c1ccc(-c2cc(-c3ccnc(C4(CO)CCC4)c3)cs2)c(Cl)c1)N1CCC(O)CC1 [Compound I-1629089, (3-chloro-4-(4-(2-(1-(hydroxymethyl)cyclobutyl)pyridin-4-yl)thiophen-2-yl)phenyl)(4-hydroxypiperidin-1-yl)methanone] | > 500 nM |  | + (0-30 = +) | +++ (≥60.1 = +++) | 
7 | O=C(c1ccc(-c2cc(-c3ccnc(OC4COC4)c3)cs2)c(Cl)c1)N1CCC(O)CC1 [Compound I-1629100, (3-chloro-4-(4-(2-(oxetan-3-yloxy)pyridin-4-yl)thiophen-2-yl)phenyl)(4-hydroxypiperidin-1-yl)methanone] | > 500 nM |  | +++ (≥60.1 = +++) | +++ (≥60.1 = +++) | 
8 | CC(C)(O)COc1cc(-c2csc(-c3ccc(C(=O)N4CCC(O)CC4)cc3Cl)c2)ccn1 [Compound I-1629101, (3-chloro-4-(4-(2-(2-hydroxy-2-methylpropoxy)pyridin-4-yl)thiophen-2-yl)phenyl)(4-hydroxypiperidin-1-yl)methanone] | > 500 nM |  | +++ (≥60.1 = +++) | +++ (≥60.1 = +++) | 
9 | O=C(c1ccc(-c2cc(-c3ccnc(O[C@@H]4CO[C@H]5[C@@H]4OC[C@H]5O)c3)cs2)c(Cl)c1)N1CCC(O)CC1 [Compound I-1629106, (3-chloro-4-(4-(2-(((3R,3aR,6R,6aR)-6-hydroxyhexahydrofuro [3,2-b]furan-3-yl)oxy)pyridin-4-yl)thiophen-2-yl)phenyl)(4-hydroxypiperidin-1-yl)methanone] | < 249 nM |  | +++ (≥60.1 = +++) | +++ (≥60.1 = +++) | 
10 | O=C(c1ccc(-c2cc(-c3ccnc(OC4CC(CO)C4)c3)cs2)c(Cl)c1)N1CCC(O)CC1 (centres unmarked) [Compound I-1629110, (3-chloro-4-(4-(2-(3-(hydroxymethyl)cyclobutoxy)pyridin-4-yl)thiophen-2-yl)phenyl)(4-hydroxypiperidin-1-yl)methanone] | < 249 nM |  | +++ (≥60.1 = +++) | +++ (≥60.1 = +++) | 
11 | O=C(c1ccc(-c2cc(-c3ccnc(OCC4CC(O)C4)c3)cs2)c(Cl)c1)N1CCC(O)CC1 (centres unmarked) [Compound I-1629118, (3-chloro-4-(4-(2-((3-hydroxycyclobutyl)methoxy)pyridin-4-yl)thiophen-2-yl)phenyl)(4-hydroxypiperidin-1-yl)methanone] | < 249 nM |  | +++ (≥60.1 = +++) | +++ (≥60.1 = +++) | 
12 | O=C(c1ccc(-c2cc(-c3ccnc(C4(CO)CC4)c3)cs2)c(Cl)c1)N1CC[C@H](O)[C@@H](F)C1 [Compound I-1629121, (3-chloro-4-(4-(2-(l-(hydroxymethyl)cyclopropyl)pyridin-4-yl)thiophen-2-yl)phenyl)((3S,4S)-3-fluoro-4-hydroxypiperidin-1-yl)methanone] | < 249 nM |  |  | +++ (≥60.1 = +++) | 
13 | CC(C)[C@H](N)C(=O)OC1CCN(C(=O)c2ccc(-c3cc(-c4ccnc(C5(CO)CC5)c4)cs3)c(Cl)c2)CC1 [Compound I-1629122, 1-(3-chloro-4-(4-(2-(1-(hydroxymethyl)cyclopropyl)pyridin-4-yl)thiophen-2-yl)benzoyl)piperidin-4-yl L-valinate] | < 249 nM |  |  |  | 
14 | CC(C)[C@H](N)C(=O)OCC1(c2cc(-c3csc(-c4ccc(C(=O)N5CCC(O)CC5)cc4Cl)c3)ccn2)CC1 [Compound I-1629123, (l-(4-(5-(2-chloro-4-(4-hydroxypiperidine-1-carbonyl)phenyl)thiophen-3-yl)pyridin-2-yl)cyclopropyl)methyl L-valinate] |  |  |  |  | < 249 nM
15 | O=C(c1ccc(-c2cc(-c3ccnc(OC4CC(O)C4)c3)cs2)c(Cl)c1)N1CCC(O)CC1 (centres unmarked) [Compound I-1629124, (3-chloro-4-(4-(2-(3-hydroxycyclobutoxy)pyridin-4-yl)thiophen-2-yl)phenyl)(4-hydroxypiperidin-1-yl)methanone] | < 249 nM |  |  | +++ (≥60.1 = +++) | 
